Source: the Kinase Knowledgebase extract (Sharma et al. 2016)

Biological target: ROCK2 (human) (UniProt O75116)
Test: Inhibition of ROCK2 Kinase Activity

Sequence of ROCK2 (human) (O75116 whole entry, looked up): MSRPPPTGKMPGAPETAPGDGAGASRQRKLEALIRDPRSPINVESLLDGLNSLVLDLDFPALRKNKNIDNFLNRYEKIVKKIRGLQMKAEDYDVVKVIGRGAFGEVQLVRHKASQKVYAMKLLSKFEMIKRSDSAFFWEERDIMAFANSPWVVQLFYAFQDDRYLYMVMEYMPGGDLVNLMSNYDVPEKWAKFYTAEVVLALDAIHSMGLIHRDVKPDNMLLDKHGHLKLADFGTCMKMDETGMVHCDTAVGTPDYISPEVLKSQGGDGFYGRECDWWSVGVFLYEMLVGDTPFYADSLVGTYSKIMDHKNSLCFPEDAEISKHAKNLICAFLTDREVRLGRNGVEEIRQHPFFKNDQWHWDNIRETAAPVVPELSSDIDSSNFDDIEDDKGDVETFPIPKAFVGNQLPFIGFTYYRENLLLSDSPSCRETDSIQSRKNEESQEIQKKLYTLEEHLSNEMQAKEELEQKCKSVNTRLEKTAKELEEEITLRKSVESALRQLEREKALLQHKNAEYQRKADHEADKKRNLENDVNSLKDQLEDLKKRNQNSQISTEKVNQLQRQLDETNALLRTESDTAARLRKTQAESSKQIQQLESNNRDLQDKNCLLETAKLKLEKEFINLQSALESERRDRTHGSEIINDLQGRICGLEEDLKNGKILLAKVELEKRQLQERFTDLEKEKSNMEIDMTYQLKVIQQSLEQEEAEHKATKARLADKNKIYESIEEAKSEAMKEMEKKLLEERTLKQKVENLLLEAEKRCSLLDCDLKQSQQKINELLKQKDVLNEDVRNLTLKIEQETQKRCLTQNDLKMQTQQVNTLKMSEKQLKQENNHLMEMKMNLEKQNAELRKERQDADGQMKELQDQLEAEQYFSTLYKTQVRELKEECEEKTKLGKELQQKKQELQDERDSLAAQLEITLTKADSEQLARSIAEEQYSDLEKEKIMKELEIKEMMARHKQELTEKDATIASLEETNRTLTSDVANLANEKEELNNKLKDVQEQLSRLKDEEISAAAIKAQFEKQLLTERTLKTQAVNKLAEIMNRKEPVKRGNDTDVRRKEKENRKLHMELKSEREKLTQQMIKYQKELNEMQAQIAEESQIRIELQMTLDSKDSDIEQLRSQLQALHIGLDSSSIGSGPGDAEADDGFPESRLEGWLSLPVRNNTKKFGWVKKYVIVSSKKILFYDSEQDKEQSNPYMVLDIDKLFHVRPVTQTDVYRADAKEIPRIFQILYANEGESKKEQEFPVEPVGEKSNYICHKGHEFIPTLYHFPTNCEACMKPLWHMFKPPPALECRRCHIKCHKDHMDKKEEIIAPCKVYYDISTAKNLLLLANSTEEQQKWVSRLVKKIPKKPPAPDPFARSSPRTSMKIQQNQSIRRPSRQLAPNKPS

IC50 [nM] | Structure (SMILES)
< 500 | NC(CC(=O)N1CCCC1c1ccc(F)cc1F)c1ccc(C(=O)Nc2ccncc2)cc1 (stereo unspecified)
< 500 | NC(CC(=O)N1CCOCC1c1ccccc1)c1ccc(C(=O)Nc2ccncc2)cc1 (stereo unspecified)
< 500 | NC(C(=O)N1CCc2ccccc2C1)c1ccc(C(=O)Nc2ccncc2)cc1 (stereo unspecified)
500 to 5000 | NC(CNS(=O)(=O)c1ccc(-c2ccccc2)cc1)c1ccc(C(=O)Nc2ccncc2)cc1 (stereo unspecified)
500 to 5000 | CN(CC(N)c1ccc(C(=O)Nc2ccncc2)cc1)S(=O)(=O)c1ccc(F)cc1 (stereo unspecified)
< 500 | NC(CC(=O)N1CCc2ccc(Cl)cc2C1)c1ccc(C(=O)Nc2ccncc2)cc1 (stereo unspecified)
< 500 | CC1CN(C(=O)CC(N)c2ccc(C(=O)Nc3ccncc3)cc2)CC(C)O1 (stereo unspecified)
< 500 | CC(C)N1CCN(C(=O)CC(N)c2ccc(C(=O)Nc3ccncc3)cc2)CC1 (stereo unspecified)
500 to 5000 | CN(CC(N)c1ccc(C(=O)Nc2ccncc2)cc1)S(=O)(=O)c1ccccc1 (stereo unspecified)
< 500 | NC(CC(=O)N1CCN(c2ccccc2)CC1)c1ccc(C(=O)Nc2ccncc2)cc1 (stereo unspecified)
< 500 | CCCS(=O)(=O)NCC(N)c1ccc(C(=O)Nc2ccncc2)cc1 (stereo unspecified)
500 to 5000 | NC(C(=O)NCCn1ccnc1)c1ccc(C(=O)Nc2ccncc2)cc1 (stereo unspecified)
< 500 | CC1CCN(C(=O)C(N)c2ccc(C(=O)Nc3ccncc3)cc2)CC1 (stereo unspecified)
500 to 5000 | NC(C(=O)NCC1CCCO1)c1ccc(C(=O)Nc2ccncc2)cc1 (stereo unspecified)
< 500 | CCCCS(=O)(=O)NCC(N)c1ccc(C(=O)Nc2ccncc2)cc1 (stereo unspecified)
< 500 | NC(CC(=O)N1CCCC1c1ccc(F)cc1)c1ccc(C(=O)Nc2ccncc2)cc1 (stereo unspecified)
< 500 | NC(C(=O)N1CCOCC1)c1ccc(C(=O)Nc2ccncc2)cc1 (stereo unspecified)
< 500 | NC(CC(=O)N1CCc2c([nH]c3ccccc23)C1)c1ccc(C(=O)Nc2ccncc2)cc1 (stereo unspecified)
500 to 5000 | CN(CCO)C(=O)C(N)c1ccc(C(=O)Nc2ccncc2)cc1 (stereo unspecified)
< 500 | NC(C(=O)N1CCC(c2nc3ccccc3o2)CC1)c1ccc(C(=O)Nc2ccncc2)cc1 (stereo unspecified)
500 to 5000 | NC(C(=O)NC1CCCCC1)c1ccc(C(=O)Nc2ccncc2)cc1 (stereo unspecified)

IC50 [nM] | Structure (SMILES)
< 500 | Cc1ccccc1S(=O)(=O)NCC(N)c1ccc(C(=O)Nc2ccncc2)cc1 (stereo unspecified)
< 500 | NC(C(=O)NCc1ccccc1)c1ccc(C(=O)Nc2ccncc2)cc1 (stereo unspecified)
< 500 | NC(CC(=O)N1CCCC1c1cccc(F)c1)c1ccc(C(=O)Nc2ccncc2)cc1 (stereo unspecified)
< 500 | NC(CC(=O)N1CC=C(c2ccc(F)cc2)CC1)c1ccc(C(=O)Nc2ccncc2)cc1 (stereo unspecified)
< 500 | NC(CC(=O)N1CCCC1c1ccc(Cl)cc1)c1ccc(C(=O)Nc2ccncc2)cc1 (stereo unspecified)
< 500 | NC(CC(=O)N1CCCCC1c1cc(Cl)ccc1Cl)c1ccc(C(=O)Nc2ccncc2)cc1 (stereo unspecified)
< 500 | NC(C(=O)NCCc1ccccc1)c1ccc(C(=O)Nc2ccncc2)cc1 (stereo unspecified)
500 to 5000 | COc1ccc(CN2CCN(C(=O)CC(N)c3ccc(C(=O)Nc4ccncc4)cc3)CC2)cc1 (stereo unspecified)
< 500 | CCCCNNC(=O)C(N)c1ccc(C(=O)Nc2ccncc2)cc1 (stereo unspecified)
< 500 | COC(=O)c1ccc(C2CCCCN2C(=O)CC(N)c2ccc(C(=O)Nc3ccncc3)cc2)cc1 (stereo unspecified)
500 to 5000 | COc1ccc(CN2CCN(C(=O)C(N)c3ccc(C(=O)Nc4ccncc4)cc3)CC2)cc1 (stereo unspecified)
< 500 | NC(CC(=O)N1CCN(CCO)CC1)c1ccc(C(=O)Nc2ccncc2)cc1 (stereo unspecified)
< 500 | NC(CC(=O)N1CCSC1)c1ccc(C(=O)Nc2ccncc2)cc1 (stereo unspecified)
500 to 5000 | CC(C)N1CCN(C(=O)C(N)c2ccc(C(=O)Nc3ccncc3)cc2)CC1 (stereo unspecified)
< 500 | COc1ccc(S(=O)(=O)NCC(N)c2ccc(C(=O)Nc3ccncc3)cc2)cc1OC (stereo unspecified)
< 500 | NC(CC(=O)N1CCC(c2ccccc2)CC1)c1ccc(C(=O)Nc2ccncc2)cc1 (stereo unspecified)
500 to 5000 | NC(C(=O)NC1CCN(Cc2ccccc2)CC1)c1ccc(C(=O)Nc2ccncc2)cc1 (stereo unspecified)
500 to 5000 | CC1CCC(NC(=O)C(N)c2ccc(C(=O)Nc3ccncc3)cc2)CC1 (stereo unspecified)
500 to 5000 | NC(c1ccc(C(=O)Nc2ccncc2)cc1)C1CCCN1S(=O)(=O)c1cccc(Cl)c1 (stereo unspecified)
< 500 | CC1CC(C)CN(C(=O)CC(N)c2ccc(C(=O)Nc3ccncc3)cc2)C1 (stereo unspecified)
< 500 | COc1ccccc1CNC(=O)C(N)c1ccc(C(=O)Nc2ccncc2)cc1 (stereo unspecified)

IC50 [nM] | Structure (SMILES)
< 500 | N[C@@H](CC(=O)N1CCC[C@H]1c1cccc(F)c1)c1ccc(C(=O)Nc2ccncc2)cc1
500 to 5000 | COc1ccc(S(=O)(=O)N2CCCC2C(N)c2ccc(C(=O)Nc3ccncc3)cc2)cc1 (stereo unspecified)
< 500 | NC(CC(=O)N1CCC(Cc2ccccc2)CC1)c1ccc(C(=O)Nc2ccncc2)cc1 (stereo unspecified)
500 to 5000 | COc1ccc(C2c3[nH]c4ccccc4c3CCN2C(=O)CC(N)c2ccc(C(=O)Nc3ccncc3)cc2)cc1Br (stereo unspecified)
< 500 | NC(CC(=O)N1CCOCC1c1ccc(F)cc1)c1ccc(C(=O)Nc2ccncc2)cc1 (stereo unspecified)
500 to 5000 | CN(CC(N)c1ccc(C(=O)Nc2ccncc2)cc1)S(=O)(=O)c1ccc(Cl)cc1 (stereo unspecified)
< 500 | NC(CNS(=O)(=O)c1cccc2ccccc12)c1ccc(C(=O)Nc2ccncc2)cc1 (stereo unspecified)
< 500 | NC(CC(=O)N1CCCC1c1cccc(Cl)c1)c1ccc(C(=O)Nc2ccncc2)cc1 (stereo unspecified)
500 to 5000 | NC(C(=O)N1CCN(CCO)CC1)c1ccc(C(=O)Nc2ccncc2)cc1 (stereo unspecified)
500 to 5000 | COC(=O)c1ccc2c(c1)CCN(C(=O)CC(N)c1ccc(C(=O)Nc3ccncc3)cc1)C2 (stereo unspecified)
< 500 | CC1CC(C)CN(C(=O)C(N)c2ccc(C(=O)Nc3ccncc3)cc2)C1 (stereo unspecified)
500 to 5000 | NC(C(=O)N1CCCC(CO)C1)c1ccc(C(=O)Nc2ccncc2)cc1 (stereo unspecified)
500 to 5000 | NC(C(=O)N1CCN(Cc2ccccc2F)CC1)c1ccc(C(=O)Nc2ccncc2)cc1 (stereo unspecified)
< 500 | NC(CC(=O)N1CCC(O)(c2ccccc2)CC1)c1ccc(C(=O)Nc2ccncc2)cc1 (stereo unspecified)
< 500 | CN(Cc1ccccc1)C(=O)C(N)c1ccc(C(=O)Nc2ccncc2)cc1 (stereo unspecified)
< 500 | N[C@@H](CC(=O)N1CCC[C@@H]1c1cccc(F)c1)c1ccc(C(=O)Nc2ccncc2)cc1
< 500 | NC(CNS(=O)(=O)c1cccs1)c1ccc(C(=O)Nc2ccncc2)cc1 (stereo unspecified)
< 500 | NC(CC(=O)N1CCOCC1c1ccc(Cl)cc1)c1ccc(C(=O)Nc2ccncc2)cc1 (stereo unspecified)
< 500 | NC(C(=O)NCc1cccc(Cl)c1)c1ccc(C(=O)Nc2ccncc2)cc1 (stereo unspecified)
< 500 | NC(C(=O)NCc1ccco1)c1ccc(C(=O)Nc2ccncc2)cc1 (stereo unspecified)
500 to 5000 | NC(C(=O)Nc1ccccc1)c1ccc(C(=O)Nc2ccncc2)cc1 (stereo unspecified)

IC50 [nM] | Structure (SMILES)
< 500 | NC(CNS(=O)(=O)c1ccccc1Cl)c1ccc(C(=O)Nc2ccncc2)cc1 (stereo unspecified)
< 500 | NC(CC(=O)N1CCCC2CCCCC21)c1ccc(C(=O)Nc2ccncc2)cc1 (stereo unspecified)
500 to 5000 | CONC(=O)C(N)c1ccc(C(=O)Nc2ccncc2)cc1 (stereo unspecified)
< 500 | COc1ccc(NC(=O)C(N)c2ccc(C(=O)Nc3ccncc3)cc2)cc1 (stereo unspecified)
< 500 | NC(CNS(=O)(=O)c1ccc(Cl)cc1)c1ccc(C(=O)Nc2ccncc2)cc1 (stereo unspecified)
500 to 5000 | CC1CN(C(=O)C(N)c2ccc(C(=O)Nc3ccncc3)cc2)CC(C)O1 (stereo unspecified)
< 500 | NC(CC(=O)N1CCc2ccccc2C1)c1ccc(C(=O)Nc2ccncc2)cc1 (stereo unspecified)
500 to 5000 | NC(c1ccc(C(=O)Nc2ccncc2)cc1)C1CCCN1S(=O)(=O)c1ccccc1F (stereo unspecified)
< 500 | NC(CC(=O)N1CCOCC1)c1ccc(C(=O)Nc2ccncc2)cc1 (stereo unspecified)
500 to 5000 | NC(C(=O)N1CCC(O)(c2ccccc2)CC1)c1ccc(C(=O)Nc2ccncc2)cc1 (stereo unspecified)
< 500 | CCS(=O)(=O)NCC(N)c1ccc(C(=O)Nc2ccncc2)cc1 (stereo unspecified)
< 500 | NC(CC(=O)N1CCCC1c1ccccc1)c1ccc(C(=O)Nc2ccncc2)cc1 (stereo unspecified)
< 500 | NC(CC(=O)N1CCCCC1)c1ccc(C(=O)Nc2ccncc2)cc1 (stereo unspecified)
< 500 | COc1ccc(Cl)cc1C1CCCCN1C(=O)CC(N)c1ccc(C(=O)Nc2ccncc2)cc1 (stereo unspecified)
500 to 5000 | CN(C)CCNC(=O)C(N)c1ccc(C(=O)Nc2ccncc2)cc1 (stereo unspecified)
500 to 5000 | CCCCCCCCS(=O)(=O)NCC(N)c1ccc(C(=O)Nc2ccncc2)cc1 (stereo unspecified)
500 to 5000 | NC(C(=O)N1CCN(c2ccccc2)CC1)c1ccc(C(=O)Nc2ccncc2)cc1 (stereo unspecified)
< 500 | NC(CNS(=O)(=O)Cc1ccccc1)c1ccc(C(=O)Nc2ccncc2)cc1 (stereo unspecified)
